# Experimental data as given in patent publication US10246426B2, “Triazole compounds as T-type calcium channel blockers” (IDORSIA PHARMACEUTICALS LTD, priority 2014, dated 2019).
# Biological target: Cav3.2 (Homo sapiens, UniProt O95180)
# Test: Calcium flux FLIPR assay, HEK293 cells recombinantly expressing Cav3.2
# Format: cell-based
# Conditions: Cav3.2-channel, Ca2+ entry stimulated by 10 mM CaCl2
# Procedure: In Vitro Methods—Measurement of Calcium Channel Flux by Means of FLIPR Assays.
# HEK293 cells recombinantly expressing either voltage-dependent T-type calcium channel subunit […] (Cav3.2) or voltage-dependent L-type calcium channel subunit alpha-1C (Cav1.2) are assayed for calcium flux using the calcium indicator dye Fluo-4-AM (Molecular Devices) and FLIPR technology (Fluorometric Imaging Plate Reader, Molecular Devices) (Xie X, Van Deusen A L, Vitko I, Babu D A, Davies L A, Huynh N, Cheng H, Yang N, Barrett P Q, Perez-Reyes E. Validation of high throughput screening assays against three subtypes of Ca(v)3 T-type channels using molecular and pharmacologic approaches. Assay and Drug Development Technologies 2007, 5(2), 191-203). The HEK293 cells recombinantly expressing Cav3.2 are maintained in DMEM growth medium (Life Technologies) supplemented with 10% Fetal Bovine Serum (FBS), 100 U/ml penicilin (Life Technologies), 100 μg/ml streptomycin (Life Technologies) and 1 mg/ml G418 (Life Technologies). HEK293 cells recombinantly expressing Cav1.2 are maintained in DMEM growth medium (Life technologies) supplemented with 10% FBS, 0.1 mg/ml G418 (Life Technologies), 0.1 mg/ml hygromycin (Life Technologies) and 40 ug/ml zeocin (Life Technologies).
# Cells are washed once with PBS, then dissociated in 0.25% trypsin/EDTA (Life Technologies) and seeded into poly-D-lysine coated 384-well black, clear bottom plates (BD Biosciences) at a density of 30,000 cells/well. The seeded plates are incubated overnight at 37° C.
# Immediately prior to performing the assay, medium is removed and cells are treated for 1 hour at 37° C. with loading buffer containing HBSS 1× (137 mM NaCl; 5.4 mM KCl; 0.25 mM Na2HPO4; 1.3 mM CaCl2; 0.4 mM MgSO04; 0.5 mM MgCl2; 0.4 mM KH2PO4, pH 7.4), 0.375 g/L NaHCO3, 20 mM Hepes, supplemented with 3 μM Fluo-4-AM and 0.15% Pluronic (Life Technologies). The cells are then washed three times with assay buffer (HBSS 1×; 0.375 g/L NaHCO3; 20 mM Hepes; 1% FBS; pH 7.4) and allowed to rest in 50 μl of wash buffer for 30 minutes.
# Stock solutions of test compounds are prepared to a concentration of 10 mM in DMSO. For the Cav3.2 assay, serial dilutions of the compounds are prepared in TEAC buffer (100 mM tetraethylammonium chloride; 20 mM Hepes; 2.5 mM CaCl2; 5 mM KCl; 1 mM MgCl2; 1% FBS; pH 7.2), for the Cav1.2 assay serial dilutions are prepared in assay buffer. […] The compounds are incubated with the cells for 3 minutes and Ca2+ entry is stimulated by adding either CaCl2 to a final concentration of 10 mM (Cav3.2 assay) or by adding KCl to a final concentration of 20 mM (Cav1.2 assay). The kinetics of fluorescence increase are recorded for every well and the area under the fluorescence trace for every compound concentration is used to generate inhibition curves using non-linear regression sigmoidal concentration-response curve analysis with in-house software. IC50 values are calculated and represent the compound concentration required to inhibit 50% of the signal that is obtained in the presence of vehicle instead of test compound.
# Chain of Cav3.2 (O95180 whole entry, looked up): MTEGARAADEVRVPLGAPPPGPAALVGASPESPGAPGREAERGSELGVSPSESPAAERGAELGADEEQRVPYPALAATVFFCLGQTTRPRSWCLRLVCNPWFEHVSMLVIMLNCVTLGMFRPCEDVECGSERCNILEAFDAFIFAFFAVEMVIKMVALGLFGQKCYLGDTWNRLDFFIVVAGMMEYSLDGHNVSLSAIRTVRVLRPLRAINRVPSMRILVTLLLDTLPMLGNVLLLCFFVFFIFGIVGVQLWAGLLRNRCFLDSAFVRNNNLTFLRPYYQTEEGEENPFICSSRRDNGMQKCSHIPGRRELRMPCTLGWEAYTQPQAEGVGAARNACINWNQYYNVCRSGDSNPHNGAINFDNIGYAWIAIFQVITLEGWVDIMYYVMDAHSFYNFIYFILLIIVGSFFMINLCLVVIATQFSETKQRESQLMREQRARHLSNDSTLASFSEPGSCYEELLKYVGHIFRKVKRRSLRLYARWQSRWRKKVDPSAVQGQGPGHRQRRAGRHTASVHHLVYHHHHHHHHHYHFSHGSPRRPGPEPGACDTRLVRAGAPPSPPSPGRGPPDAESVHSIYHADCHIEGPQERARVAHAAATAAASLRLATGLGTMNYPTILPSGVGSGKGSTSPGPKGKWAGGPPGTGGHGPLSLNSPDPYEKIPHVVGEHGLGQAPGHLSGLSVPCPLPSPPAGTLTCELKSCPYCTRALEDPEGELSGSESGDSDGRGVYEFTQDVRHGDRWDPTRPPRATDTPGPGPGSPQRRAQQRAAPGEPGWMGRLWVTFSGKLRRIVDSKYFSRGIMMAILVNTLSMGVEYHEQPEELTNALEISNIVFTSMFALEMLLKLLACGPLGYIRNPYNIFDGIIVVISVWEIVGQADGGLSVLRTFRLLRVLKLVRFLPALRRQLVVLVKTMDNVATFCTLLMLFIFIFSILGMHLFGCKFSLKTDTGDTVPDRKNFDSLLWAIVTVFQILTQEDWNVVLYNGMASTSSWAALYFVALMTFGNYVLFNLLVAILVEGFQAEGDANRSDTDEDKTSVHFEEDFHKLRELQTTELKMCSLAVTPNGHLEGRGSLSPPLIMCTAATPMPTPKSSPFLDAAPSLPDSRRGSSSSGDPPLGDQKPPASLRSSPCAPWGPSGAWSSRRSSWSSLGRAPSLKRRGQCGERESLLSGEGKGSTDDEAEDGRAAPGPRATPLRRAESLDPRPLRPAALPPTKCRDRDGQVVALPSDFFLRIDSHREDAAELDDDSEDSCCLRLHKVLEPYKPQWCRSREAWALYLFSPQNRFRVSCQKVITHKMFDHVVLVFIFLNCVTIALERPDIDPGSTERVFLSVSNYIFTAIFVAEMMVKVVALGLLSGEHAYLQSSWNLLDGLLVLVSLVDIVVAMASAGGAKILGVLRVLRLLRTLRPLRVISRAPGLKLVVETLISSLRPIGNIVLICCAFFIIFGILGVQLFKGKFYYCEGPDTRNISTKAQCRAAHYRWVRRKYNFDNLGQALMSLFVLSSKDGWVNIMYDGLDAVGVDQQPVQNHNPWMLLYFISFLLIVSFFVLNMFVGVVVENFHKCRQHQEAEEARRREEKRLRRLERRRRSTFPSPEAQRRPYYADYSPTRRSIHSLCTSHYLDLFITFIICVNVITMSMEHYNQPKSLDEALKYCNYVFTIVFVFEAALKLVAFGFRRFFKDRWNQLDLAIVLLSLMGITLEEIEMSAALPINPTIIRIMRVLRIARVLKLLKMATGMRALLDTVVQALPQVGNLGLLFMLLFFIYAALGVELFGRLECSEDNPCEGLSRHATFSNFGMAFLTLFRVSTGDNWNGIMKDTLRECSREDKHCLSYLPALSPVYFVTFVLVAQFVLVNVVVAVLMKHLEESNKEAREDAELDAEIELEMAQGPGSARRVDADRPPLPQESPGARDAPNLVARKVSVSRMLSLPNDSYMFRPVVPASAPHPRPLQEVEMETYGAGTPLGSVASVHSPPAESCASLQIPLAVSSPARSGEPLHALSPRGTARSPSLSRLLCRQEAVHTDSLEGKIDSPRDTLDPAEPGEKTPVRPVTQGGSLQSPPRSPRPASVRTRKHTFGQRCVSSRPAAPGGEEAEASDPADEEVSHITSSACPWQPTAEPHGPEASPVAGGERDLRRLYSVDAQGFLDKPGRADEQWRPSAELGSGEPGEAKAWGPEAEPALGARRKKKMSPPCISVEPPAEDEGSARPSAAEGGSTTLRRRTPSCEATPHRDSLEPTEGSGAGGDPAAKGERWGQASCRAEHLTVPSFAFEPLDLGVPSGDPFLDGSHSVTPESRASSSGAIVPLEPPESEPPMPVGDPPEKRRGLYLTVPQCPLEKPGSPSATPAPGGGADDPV
row,Structure (SMILES),IC50
1,"Cc1nn(C)c2ccc(CC(=O)Nc3cnn(Cc4ccc(OC(F)(F)F)c(F)c4)n3)cc12 [Example 191, 2-(1,3-Dimethyl-1H-indazol-5-yl)-N-[2-(3-fluoro-4-trifluoromethoxy-benzyl)-2H-[1,2,3]triazol-4-yl]-acetamide]",11 nM
2,CN(c1ccc(CC(=O)Nc2cnn(Cc3ccc(F)c(F)c3)n2)cn1)C1CC1 [Example 11],32 nM
3,"CCn1ncc2cc(CC(=O)Nc3cnn(Cc4ccc(C#N)c(C)c4)n3)ccc21 [Example 168, N-[2-(4-Cyano-3-methyl-benzyl)-2H-[1,2,3]triazol-4-yl]-2-(1-ethyl-1H-indazol-5-yl)-acetamide]",40 nM
4,"CC(C)(C#N)c1ccc(CC(=O)Nc2cnn(Cc3ccc(C#N)c(F)c3)n2)cc1 [Example 157, 2-[4-(Cyano-dimethyl-methyl)-phenyl]-N-[2-(4-cyano-3-fluoro-benzyl)-2H-[1,2,3]triazol-4-yl]-acetamide]",31 nM
5,"CCOc1ccc(Cn2ncc(NC(=O)Cc3ccc(N4CCCC4)nc3)n2)cc1 [Example 45, N-[2-(4-Ethoxy-benzyl)-2H-[1,2,3]triazol-4-yl]-2-(6-pyrrolidin-1-yl-pyridin-3-yl)-acetamide]",32 nM
6,"COC1(c2ccc(CC(=O)Nc3cnn(Cc4ccc(F)c(F)c4)n3)cc2)COC1 [Example 20, N-[2-(3,4-Difluoro-benzyl)-2H-[1,2,3]triazol-4-yl]-2-[4-(3-methoxy-oxetan-3-yl)-phenyl]-acetamide]",89 nM
7,"COc1ccc(Cn2ncc(NC(=O)Cc3ccc(C4(C(F)(F)F)CC4)cc3)n2)cc1C#N [Example 203, N-[2-(3-Cyano-4-methoxy-benzyl)-2H-[1,2,3]triazol-4-yl]-2-[4-(1-trifluoromethyl-cyclopropyl)-phenyl]-acetamide]",220 nM
8,"CCN(CC)c1ccc(CC(=O)Nc2cnn(Cc3ccc(F)c(F)c3)n2)cn1 [Example 16, 2-(6-Diethylamino-pyridin-3-yl)-N-[2-(3,4-difluoro-benzyl)-2H-[1,2,3]triazol-4-yl]-acetamide]",15 nM
9,"CC(C)(C)c1ccc(CC(=O)Nc2cnn(Cc3ccc(OC(F)(F)F)cc3)n2)cc1 [Example 90, 2-(4-tert-Butyl-phenyl)-N-[2-(4-trifluoromethoxy-benzyl)-2H-[1,2,3]triazol4-yl]-acetamide]",200 nM
10,"COc1ccc(Cn2ncc(NC(=O)Cc3ccc(C(C)C)cc3)n2)cc1C#N [Example 205, N-[2-(3-Cyano-4-methoxy-benzyl)-2H-[1,2,3]triazol-4-yl]-2-(4-isopropyl-phenyl)-acetamide]",160 nM
11,"COc1ccc(Cn2ncc(NC(=O)Cc3ccc(N4CCC(F)(F)C4)nc3)n2)cc1C#N [Example 207, N-[2-(3-Cyano-4-methoxy-benzyl)-2H-[1,2,3]triazol-4-yl]-2-[6-(3,3-difluoro-pyrrolidin-1-yl)-pyridin-3-yl]-acetamide]",130 nM
12,"CCOc1ccc(Cn2ncc(NC(=O)Cc3ccc(C(C)C)cc3)n2)cc1 [Example 44, N-[2-(4-Ethoxy-benzyl)-2H-[1,2,3]triazol-4-yl]-2-(4-isopropyl-phenyl)-acetamide]",40 nM
13,"COc1cc(Cn2ncc(NC(=O)Cc3ccc4c(c3)c(C)cn4C)n2)cc(F)c1F [Example 240, N-[2-(3,4-Difluoro-5-methoxy-benzyl)-2H-[1,2,3]triazol-4-yl]-2-(1,3-dimethyl-1H-indol-5-yl)-acetamide]",180 nM
14,"CCn1ncc2cc(CC(=O)Nc3cnn(Cc4ccc(C#N)cc4)n3)ccc21 [Example 103, N-[2-(4-Cyano-benzyl)-2H-[1,2,3]triazol-4-yl]-2-(1-ethyl-1H-indazol-5-yl)-acetamide]",74 nM
15,"Cc1nn(C)c2ccc(CC(=O)Nc3cnn(Cc4ccc(F)c(F)c4)n3)cc12 [Example 28, N-[2-(3,4-Difluoro-benzyl)-2H-[1,2,3]triazol-4-yl]-2-(1,3-dimethyl-1H-indazol-5-yl)-acetamide]",22 nM
